According to patent US5432195A, “Benzofuran derivative and pharmaceutical composition” (Nippon Shinyaku Company Limited, priority 1991, dated 1995):
Counter-ions that a name gives are not always drawn.

Experiments:
[1] = tested on: fatty acid synthesis (liver slices of rat); assay: lipid biosynthesis by tissue slices of liver of rat: fatty acid synthesis; type: cell-based; details: 10 μg/ml, percentage to the control; for activity at 10 µg/mL: Rattus norvegicus, 2 h, read-out: Fatty Acid Synth.; for Fatty Acid Synth.: 120 min
Description: (§1) 5) Action of the compounds of the present invention to lipid biosynthesis by tissue slices of liver of rat
(§2) Test method: Krebs-Ringer-Bicarbonate solution (1 ml) containing 1 mM of ^14 C-acetic acid and 10 μg/ml of the test substance was added to 100 mg of liver slices of rat, the air was substituted with a mixed gas (oxygen:carbon dioxide=95:5) and incubation was conducted at 37° C. for 2 hours. After completion of the reaction, 15% ethanolic solution of potassium hydroxide was added and saponification was conducted at 75° C. for 2 hours. A part of the saponified solution was subjected to a measurment of protein. Residual saponified solution was extracted with petroleum ether and the radioactivity of the petroleum ether layer was measured to determine the cholesterol synthesizing activity. The aqueous layer was acidified with 6N hydrochloric acid, extracted with petroleum ether and the radioactivity of the extract was measured to determine fatty acid synthesizing activity. The values were expressed in terms of percentage to the control after calculating the mol numbers (nmol/mg) of the ^14 C-acetic acid incorporated into each extract per protein (nmol/mg protein).

[2] = tested on: cholesterol synthesis (liver slices of rat); assay: lipid biosynthesis by tissue slices of liver of rat: cholesterol synthesis; type: cell-based; details: 10 μg/ml, percentage to the control; for activity at 10 µg/mL: Rattus norvegicus, 2 h, read-out: Cholesterol Synth.; for Cholesterol Synth.: 120 min
Description: as §1, §2

[3] = tested on: total cholesterol (TC) in serum; assay: lowering total cholesterol (TC) in serum using normal rhesus monkeys; type: in vivo; details: oral
Source text: 1) An action of lowering total cholesterol (TC) in serum using normal rhesus monkeys. Test Method: Male rhesus monkeys of 2-5 years age (body weight: 3.0-6.4 kg; Experiment No.1) or male rhesus monkeys of 2-6 years age (body weight: 3.5-8.0 kg; Expt. Nos. 2, 3 and 4) were subjected to the experiments. During the experiment, solid feed (manufactured by Oriental Yeast) was given at the dose of 150 g once daily. Each group consisted of 2 to 6 monkeys. The substance to be tested was in a form of suspension in 0.5% methylcellulos solution. The suspension was given orally using rubber probe at the dose of 30, 50 or 100 mg/kg for seven days (Expt. Nos. 1 and 2(2)) or for 28 days (Expt. Nos. 2(1), 3 and 4). Blood was taken from saphena in lower limbs one week and immediately before the administration and also 7, 14, 21 and 28 days after the administration of the suspension whereby serum TC was measured. The change rate of serum TC was calculated by the following expression. The change rate of serum TC=(ATC-BTC)/BTC×100 In the expression, ATC is the TC after administration of the substance tested while BTC is the TC before the administration (average of those one week and immediately before the administration).

serum TC = assay: Serum TC lowering action in normal crab-eating macaques; type: in vivo
Source text: 2) Serum TC lowering action in normal crab-eating macaques.
Test Method: Male crab-eating macaques (body weight: 2.5-6.6 kg) were subjected to the experiments. During the expriment period, the feed (manufactured by Oriental Yeast) containing 0.1% (Expt. No. 1) or 0.3% (Expt. No. 2) of the compound of Example 4 was given once daily a 35 g/kg for 5 weeks (0.1%) or for 8 weeks (0.3%). Usual feed for monkeys was given to the control group. Blood was taken immediately before the administration and 1, 2 and 5 weeks after the administration in the case of 0.1% mixed feed or, in the case of 0.3% mixed feed, immediately before and 2, 4, 6 and 8 weeks after the administration. All operations for taking blood were conducted prior to giving the feed and the serum TC therein was measured. The change rate of the serum TC was calculated by the following expression.
The change rate of serum TC=(ATC-BTC)/BTC×100
In the expression, ATC is the TC after administration of the substance tested and BTC is the TC immediately before administration.

Mice of ddY-strain = assay: Acute Toxicity; type: in vivo; details: oral, 2 g/kg
Description: Mice of ddY-strain (7 weeks age; four mice per group) were fasted overnight, the compound of Example 4 of the present invention suspended in 0.5% methylcellulose solution was orally administered at 2 g/kg and the general symptoms until 3 hours after that and those until one week thereafter were checked.

Lp(a) [4] = assay: Influence on Lp(a): lowering Lp(a) in plasma in crab-eating monkeys; type: in vivo; details: 0.3% in feed, average ± S.E.
Description: Five to six crab-eating monkeys (male; body weight ranging 5-9 kg) as one group were fed and, to the group administered with the test sample, the feed containing 0.3% of this invention compound (that of Example 4) was fed while, to the control group, usual feed was given. The Lp(a) concentrations in the plasma were measured by the following method at the initiation of the administration, 13 weeks thereafter and 5 weeks after completion of the administration.
Commercially-available kit manufactured by Biopool Co, was used. In accordance with the procedures as given in the kit, PET buffer and sample buffer were prepared. To 20 μl of the plasma was added 1 ml of sample buffer and to 10 μl or 20 μl the resulting diluted liquid was further added 1.01 ml or 1 ml of the sample buffer to that the liquid diluted to an extent of 5202 times or 2601 times was prepared. In accordance with the steps as instructed by the kit, each 20 μl of the diluted sample was added to each well and measurement was conducted by duplicate. The result was calculated from the working curve prepared from the data obtained for the standard human Lp(a) in the kit.

[5] = tested on: fatty acid synthesis (liver slices of rat); assay: lipid biosynthesis of tissue slices of liver of rat (part 2): fatty acid synthesis; type: cell-based; details: 2 h, 10 μg/ml, percentage to the control
Description: as §2
(§3) 6) Action of the compounds of the present invention to lipid biosynthesis of tissue slices of liver of rat (part 2)
(§4) The activity of the present invention compound was measured by the same manner as above 5). The values were expressed in terms of percentage to the control after calculating the mol numbers (nmol/mg) of the ^14 C-acetic acid incorporated into each extract per protein (nmol/mg protein).

[6] = tested on: cholesterol synthesis (liver slices of rat); assay: lipid biosynthesis of tissue slices of liver of rat (part 2): cholesterol synthesis; type: cell-based; details: 2 h, 10 μg/ml, percentage to the control
Description: as §2, §3, §4

Lp(a) [7] = details: J. Internal Medicine 226 271-276 (1989); cited from earlier work

CC(C)(C)c1ccc2oc(C(O)COc3ccc(C(=O)O)cc3)cc2c1 (single isomer, unassigned; (+)) [Example 11, (+)-5-tert-Butyl-2-[2-(4-carboxyphenoxy)-1-hydroxyethyl]benzofuran]
activity at 10 µg/mL ([1]; Expt. 1): 12% | activity at 10 µg/mL ([1]; Expt. 2): 18% | activity at 10 µg/mL ([2]; Expt. 1): 35% | activity at 10 µg/mL ([2]; Expt. 2): 24%

CC(C)(C)c1ccc2oc(C(O)COc3ccc(C(=O)O)cc3)cc2c1 (single isomer, unassigned; (-)) [Example 12, (-)-5-tert-Butyl-2-[2-(4-carboxyphenoxy)-1-hydroxyethyl]benzofuran]
Fatty Acid Synth. ([1]; Expt. 1): 16% | Fatty Acid Synth. ([1]; Expt. 2): 14% | Cholesterol Synth. ([2]; Expt. 1): 33% | Cholesterol Synth. ([2]; Expt. 2): 27%

CC(C)(Oc1ccc(CCNC(=O)c2ccc(Cl)cc2)cc1)C(=O)O [Bezafibrate, reference compound]
TC Change Rate ([3]; 100 mg/kg, after 7 days): -13% | TC Change Rate ([3]; 100 mg/kg, after 14 days): -10% | TC Change Rate ([3]; 100 mg/kg, after 21 days): 3% | TC Change Rate ([3]; 100 mg/kg, after 28 days): -7%

CC(C)(C)c1ccc2oc(C(O)COc3ccc(C(=O)O)cc3)cc2c1 (stereo not shown) [Example 4, 5-tert-Butyl-2-[2-(4-carboxyphenoxy)-1-hydroxyethyl]benzofuran]
TC Change Rate (serum TC; 0.1% in the feed, after 1 week): 16% | TC Change Rate (serum TC; 0.1% in the feed, after 2 weeks): -18% | TC Change Rate (serum TC; 0.1% in the feed, after 5 weeks): -31% | TC Change Rate (serum TC; 0.3% in the feed, after 2 weeks): -32% | TC Change Rate (serum TC; 0.3% in the feed, after 4 weeks): -46% | TC Change Rate (serum TC; 0.3% in the feed, after 6 weeks): -42% | TC Change Rate (serum TC; 0.3% in the feed, after 8 weeks): -37% | activity at 10 µg/mL ([1]; Expt. 1): 20% | activity at 10 µg/mL ([1]; Expt. 2): 12% | activity at 10 µg/mL ([2]; Expt. 1): 41% | activity at 10 µg/mL ([2]; Expt. 2): 27% | Acute toxicity: deaths (Mice of ddY-strain; observed until one week): no animals tested were dead | Acute toxicity: general symptoms (Mice of ddY-strain; until 3 hours and until one week thereafter): no abnormal symptoms were noticed | Plasma Lp(a) (Lp(a) [4]; 5 weeks after completion of administration): 60.1 ± 7.9 mg/dL | Plasma Lp(a) (Lp(a) [4]; 13 weeks thereafter): 9.2 ± 1.2 mg/dL | Plasma Lp(a) (Lp(a) [4]; Immed. after administration (text: at the initiation)): 73.2 ± 8.5 mg/dL | activity at 10 µg/mL [5]: 29% | activity at 10 µg/mL [6]: 61%

CC(C)c1ccc2oc(C(O)COc3ccc(C(=O)O)cc3)cc2c1 (stereo not shown) [Example 6, 2-[2-(4-Carboxyphenoxy)-1-hydroxyethyl]5-isopropylbenzofuran]
TC Change Rate ([3]; 100 mg/kg, after 7 days): -42%

CC(C)c1ccc2oc(C(O)COc3ccc(C(=O)O)cc3)cc2c1 (stereo not shown) [Example 8, 2-[2-(4-Carboxyphenoxy)-1-hydroxyethyl]-5-isopropylbenzofuran sodium salt]
TC Change Rate ([3]; 50 mg/kg, after 7 days): -31% | TC Change Rate ([3]; 50 mg/kg, after 14 days): -31% | TC Change Rate ([3]; 50 mg/kg, after 21 days): -44% | TC Change Rate ([3]; 50 mg/kg, after 28 days): -51%

CC(C)c1ccc2oc(C(O)COc3ccc(C(=O)O)cc3)cc2c1 (stereo not shown) [Example 9, 2-[2-(4-Carboxyphenoxy)-1-hydroxyethyl]-5-isopropylbenzofuran calcium salt]
TC Change Rate ([3]; 30 mg/kg, after 7 days): -19% | TC Change Rate ([3]; 30 mg/kg, after 14 days): -34% | TC Change Rate ([3]; 30 mg/kg, after 21 days): -29% | TC Change Rate ([3]; 30 mg/kg, after 28 days): -24%

CC(C)c1ccc2oc(C(O)COc3ccc(CO)cc3)cc2c1 (stereo not shown) [Example 10, 2-[1-Hydroxy-2-(4-hydroxymethylphenoxy)ethyl]-5-isopropylbenzofuran]
TC Change Rate ([3]; 100 mg/kg, after 7 days): -32%

CC(C)(C)c1ccc2oc(C(=O)COc3ccc(C(=O)O)cc3)cc2c1 [Example 14, 5-tert-Butyl-2-(4-carboxyphenoxyacetyl)benzofuran]
activity at 10 µg/mL [5]: 32% | activity at 10 µg/mL [6]: 64%

CC(=O)OC(COc1ccc(C(=O)O)cc1)c1cc2cc(C(C)C)ccc2o1 (stereo not shown) [Example 17, 2-[1-Acetoxy-2-(4-carboxyphenoxy)ethyl]-5-isopropylbenzofuran]
activity at 10 µg/mL [5]: 33% | activity at 10 µg/mL [6]: 66%

O=C(O)c1cccnc1 [Nicotinic acid]
adverse reactions (Lp(a) [7]): flushing | concentration of Lp(a) in blood (Lp(a) [7]): lowers the concentration of Lp(a) in blood
